Data: patent publication US20190322676A1, “CERAMIDE GALACTOSYLTRANSFERASE INHIBITORS FOR THE TREATMENT OF DISEASE” (BioMarin Pharmaceutical Inc., priority 2016, published 2019)

molecular target: T1, human CGT (ceramide galactosyltransferase), CHO/CGT lysate (Homo sapiens, UniProt Q16880); assay: CGT enzyme assay, RapidFire/MS/MS readout (Table 1 ranges with one asterisk *); assay type: biochemical; settings: RapidFire method (range with one asterisk *)
T1 construct: Full-length human CGT cDNA was cloned into the BamH1/Xho1 site of pcDNA3.1 (+); expressed in transfected cells; host or cells: Chinese hamster ovary (CHO) cells; lysate prepared with M-PER
T1 sequence (Q16880 21-541): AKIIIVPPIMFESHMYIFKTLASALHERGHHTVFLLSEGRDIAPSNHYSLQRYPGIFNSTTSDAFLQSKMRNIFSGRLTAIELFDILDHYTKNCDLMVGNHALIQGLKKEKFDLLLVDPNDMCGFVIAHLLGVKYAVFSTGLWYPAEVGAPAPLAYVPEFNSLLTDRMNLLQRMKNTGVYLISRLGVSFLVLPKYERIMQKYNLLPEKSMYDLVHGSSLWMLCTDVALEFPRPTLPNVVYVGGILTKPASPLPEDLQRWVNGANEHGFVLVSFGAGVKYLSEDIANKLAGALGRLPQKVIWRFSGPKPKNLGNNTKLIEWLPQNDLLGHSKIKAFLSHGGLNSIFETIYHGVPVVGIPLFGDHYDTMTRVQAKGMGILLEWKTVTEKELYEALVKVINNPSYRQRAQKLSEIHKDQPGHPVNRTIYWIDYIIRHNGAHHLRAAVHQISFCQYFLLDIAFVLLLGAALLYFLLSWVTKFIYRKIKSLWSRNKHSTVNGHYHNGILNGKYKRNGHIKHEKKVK
In short: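 IC50s come from variable-slope dose-response fits of internal-standard-normalized C6-NBD-dihydro-galactosylceramide, measured by RapidFire/MS/MS (ESI negative). Reactions: 1 h, 37 °C, human CGT-expressing CHO lysate (4 μg), 0.001–50 μM compound, 10 μM NBD-dihydro-ceramide, 17.5 μM UDP-galactose, 0.5% DMSO, pH 7.2; 0.01% Tween 80 added for ** values.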

Structure (SMILES)	IC50
NC1CCN(C(=O)[C@H](NS(=O)(=O)c2ccc3cc(OC4CCCC4)ccc3c2)C(F)(F)c2ccc(OC3CCCCC3)cc2)CC1 [Compound 97-2, (S)—N-(3-(4-aminopiperidin-1-yl)-1-(4-(cyclohexyloxy)phenyl)-1,1-difluoro-3-oxopropan-2-yl)-6-(cyclopentyloxy)naphthalene-2-sulfonamide]	1 to 10 µM
NC1CCN(C(=O)[C@@H](NS(=O)(=O)c2ccc3cc(OC4CCCC4)ccc3c2)C(F)(F)c2ccc(Cl)cc2)CC1 [Compound 98-1, (R)—N-(3-(4-aminopiperidin-1-yl)-1-(4-chlorophenyl)-1,1-difluoro-3-oxopropan-2-yl)-6-(cyclopentyloxy)naphthalene-2-sulfonamide]	1 to 10 µM
NC1CCN(C(=O)[C@H](NS(=O)(=O)c2ccc3cc(OC4CCCC4)ccc3c2)C(F)(F)c2ccc(Cl)cc2)CC1 [Compound 98-2, (S)—N-(3-(4-aminopiperidin-1-yl)-1-(4-chlorophenyl)-1,1-difluoro-3-oxopropan-2-yl)-6-(cyclopentyloxy)naphthalene-2-sulfonamide]	10 to 30 µM
NC1CCN(C(=O)[C@@H](NS(=O)(=O)c2ccc3c(cnn3CC3CCCC3)c2)C(F)(F)c2ccc(Cl)cc2)CC1 [Compound 99-1, (R)—N-(3-(4-aminopiperidin-1-yl)-1-(4-chlorophenyl)-1,1-difluoro-3-oxopropan-2-yl)-1-(cyclopentylmethyl)-1H-indazole-5-sulfonamide]	1 to 10 µM
NC1CCN(C(=O)[C@H](NS(=O)(=O)c2ccc3c(cnn3CC3CCCC3)c2)C(F)(F)c2ccc(Cl)cc2)CC1 [Compound 99-2, (S)—N-(3-(4-aminopiperidin-1-yl)-1-(4-chlorophenyl)-1,1-difluoro-3-oxopropan-2-yl)-1-(cyclopentylmethyl)-1H-indazole-5-sulfonamide]	30 to 100 µM
CN([C@H](C(=O)N1CCC(N)CC1)C(F)(F)c1ccc(Cl)cc1)S(=O)(=O)c1ccc2cc(OC3CCCC3)ccc2c1 [Compound 100-1, (R)—N-(3-(4-aminopiperidin-1-yl)-1-(4-chlorophenyl)-1,1-difluoro-3-oxopropan-2-yl)-6-(cyclopentyloxy)-N-methylnaphthalene-2-sulfonamide]	< 1 µM
CN([C@@H](C(=O)N1CCC(N)CC1)C(F)(F)c1ccc(Cl)cc1)S(=O)(=O)c1ccc2cc(OC3CCCC3)ccc2c1 [Compound 100-2, (S)—N-(3-(4-aminopiperidin-1-yl)-1-(4-chlorophenyl)-1,1-difluoro-3-oxopropan-2-yl)-6-(cyclopentyloxy)-N-methylnaphthalene-2-sulfonamide]	10 to 30 µM
NC1CC2CCC(C1)N2C(=O)[C@@H](NS(=O)(=O)c1ccc2cc(OC3CCCC3)ccc2c1)C(F)(F)c1ccc(-c2ccc(Cl)s2)cc1 (stereo partly drawn) [Compound 101-1, N-((2R)-3-(3-amino-8-azabicyclo[3.2.1]octan-8-yl)-1-(4-(5-chlorothiophen-2-yl)phenyl)-1,1-difluoro-3-oxopropan-2-yl)-6-(cyclopentyloxy)naphthalene-2-sulfonamide]	< 1 µM
NC1CC2CCC(C1)N2C(=O)[C@H](NS(=O)(=O)c1ccc2cc(OC3CCCC3)ccc2c1)C(F)(F)c1ccc(-c2ccc(Cl)s2)cc1 (stereo partly drawn) [Compound 101-2, N-((2S)-3-(3-amino-8-azabicyclo[3.2.1]octan-8-yl)-1-(4-(5-chlorothiophen-2-yl)phenyl)-1,1-difluoro-3-oxopropan-2-yl)-6-(cyclopentyloxy)naphthalene-2-sulfonamide]	1 to 10 µM
NC1CC2CCC(C1)N2C(=O)[C@@H](NS(=O)(=O)c1ccc2cc(OC3CCCC3)ccc2c1)C(F)(F)c1ccc(OC2CCCCC2)cc1 (stereo partly drawn) [Compound 102-1, N-((2R)-3-(3-amino-8-azabicyclo[3.2.1]octan-8-yl)-1-(4-(cyclohexyloxy)phenyl)-1,1-difluoro-3-oxopropan-2-yl)-6-(cyclopentyloxy) naphthalene-2-sulfonamide]	< 1 µM
NC1CC2CCC(C1)N2C(=O)[C@H](NS(=O)(=O)c1ccc2cc(OC3CCCC3)ccc2c1)C(F)(F)c1ccc(OC2CCCCC2)cc1 (stereo partly drawn) [Compound 102-2, N-((2S)-3-(3-amino-8-azabicyclo[3.2.1]octan-8-yl)-1-(4-(cyclohexyloxy)phenyl)-1,1-difluoro-3-oxopropan-2-yl)-6-(cyclopentyloxy)naphthalene-2-sulfonamide]	1 to 10 µM
NC1CCN(C(=O)[C@@H](NS(=O)(=O)c2ccc(OCC3CCCCC3)cc2)C(F)(F)c2ccc(OC3CCCCC3)cc2)CC1 [Compound 103-1, (R)—N-(3-(4-aminopiperidin-1-yl)-1-(4-(cyclohexyloxy)phenyl)-1,1-difluoro-3-oxopropan-2-yl)-4-(cyclohexylmethoxy)benzenesulfonamide]	< 1 µM
NC1CCN(C(=O)[C@H](NS(=O)(=O)c2ccc(OCC3CCCCC3)cc2)C(F)(F)c2ccc(OC3CCCCC3)cc2)CC1 [Compound 103-2, (S)—N-(3-(4-aminopiperidin-1-yl)-1-(4-(cyclohexyloxy)phenyl)-1,1-difluoro-3-oxopropan-2-yl)-4-(cyclohexylmethoxy)benzenesulfonamide]	30 to 100 µM
NC1CC2CCC(C1)N2C(=O)[C@@H](NS(=O)(=O)c1ccc(OCC2CCCCC2)cc1)C(F)(F)c1ccc(-c2ccc(Cl)s2)cc1 (stereo partly drawn) [Compound 104-1, N-((2R)-3-(3-amino-8-azabicyclo[3.2.1]octan-8-yl)-1-(4-(5-chlorothiophen-2-yl)phenyl)-1,1-difluoro-3-oxopropan-2-yl)-4-(cyclohexylmethoxy) benzenesulfonamide]	1 to 10 µM
NC1CC2CCC(C1)N2C(=O)[C@H](NS(=O)(=O)c1ccc(OCC2CCCCC2)cc1)C(F)(F)c1ccc(-c2ccc(Cl)s2)cc1 (stereo partly drawn) [Compound 104-2, N-((2S)-3-(3-amino-8-azabicyclo[3.2.1]octan-8-yl)-1-(4-(5-chlorothiophen-2-yl)phenyl)-1,1-difluoro-3-oxopropan-2-yl)-4-(cyclohexylmethoxy)benzenesulfonamide]	10 to 30 µM
NC1CC2CCC(C1)N2C(=O)[C@@H](NS(=O)(=O)c1ccc(OCC2CCCCC2)cc1)C(F)(F)c1ccc(OC2CCCCC2)cc1 (stereo partly drawn) [Compound 105-1, N-((2R)-3-(3-amino-8-azabicyclo[3.2.1]octan-8-yl)-1-(4-(cyclohexyloxy)phenyl)-1,1-difluoro-3-oxopropan-2-yl)-4-(cyclohexylmethoxy) benzenesulfonamide]	< 1 µM
NC1CC2CCC(C1)N2C(=O)[C@H](NS(=O)(=O)c1ccc(OCC2CCCCC2)cc1)C(F)(F)c1ccc(OC2CCCCC2)cc1 (stereo partly drawn) [Compound 105-2, N-((2S)-3-(3-amino-8-azabicyclo[3.2.1]octan-8-yl)-1-(4-(cyclohexyloxy)phenyl)-1,1-difluoro-3-oxopropan-2-yl)-4-(cyclohexylmethoxy)benzenesulfonamide]	10 to 30 µM
CN([C@H](C(=O)N1C2CCC1CC(N)C2)C(F)(F)c1ccc(OCc2ccccc2)cc1)S(=O)(=O)c1ccc2cc(OC3CCCC3)ccc2c1 (stereo partly drawn) [Compound 106-1, N-((2R)-3-(3-amino-8-azabicyclo[3.2.1]octan-8-yl)-1-(4-(benzyloxy)phenyl)-1,1-difluoro-3-oxopropan-2-yl)-6-(cyclopentyloxy)-N-methylnaphthalene-2-sulfonamide]	1 to 10 µM
CN([C@@H](C(=O)N1C2CCC1CC(N)C2)C(F)(F)c1ccc(OCc2ccccc2)cc1)S(=O)(=O)c1ccc2cc(OC3CCCC3)ccc2c1 (stereo partly drawn) [Compound 106-2, N-((2S)-3-(3-amino-8-azabicyclo[3.2.1]octan-8-yl)-1-(4-(benzyloxy)phenyl)-1,1-difluoro-3-oxopropan-2-yl)-6-(cyclopentyloxy)-N-methylnaphthalene-2-sulfonamide]	1 to 10 µM
NC1CC2CCC(C1)N2C(=O)[C@@H](NS(=O)(=O)c1ccc2cc(OC3CCCC3)ccc2c1)C(F)(F)c1cccc(Oc2ccccc2)c1 (stereo partly drawn) [Compound 107-1, N-((2R)-3-(3-amino-8-azabicyclo[3.2.1]octan-8-yl)-1,1-difluoro-3-oxo-1-(3-phenoxyphenyl)propan-2-yl)-6-(cyclopentyloxy)naphthalene-2-sulfonamide]	< 1 µM
NC1CC2CCC(C1)N2C(=O)[C@H](NS(=O)(=O)c1ccc2cc(OC3CCCC3)ccc2c1)C(F)(F)c1cccc(Oc2ccccc2)c1 (stereo partly drawn) [Compound 107-2, N-((2S)-3-(3-amino-8-azabicyclo[3.2.1]octan-8-yl)-1,1-difluoro-3-oxo-1-(3-phenoxyphenyl)propan-2-yl)-6-(cyclopentyloxy)naphthalene-2-sulfonamide]	1 to 10 µM
NC1CCN(C(=O)[C@@H](NS(=O)(=O)c2ccc3cc(OC4CCCC4)ccc3c2)C(F)(F)c2cccc(Oc3ccccc3)c2)CC1 [Compound 108-1, (R)—N-(3-(4-aminopiperidin-1-yl)-1,1-difluoro-3-oxo-1-(3-phenoxyphenyl)propan-2-yl)-6-(cyclopentyloxy)naphthalene-2-sulfonamide]	< 1 µM
